Measurements taken from patent US20240374750A1, “LINKER COMPOUND AND COMPLEX COMPOUND CONTAINING SAME” (TOHOKU UNIVERSITY, priority 2021, published 2024).

Key:
Type in all cases: physicochemical
[1] = Cleavage reaction under cancer cell model condition, NMR (Test Examples 6 and 9)
Method: At a concentration of ArS—SrA (H) of the formula (7) (225 μM) assuming a realistic intracellular drug concentration, a GSH concentration of a cancer cell was approximated to 20 mM, and the same measurement was performed.
To prevent a peak of the aromatic region having a low concentration from being overlapped by the peak of CHCl3 contained in CDCl3, the measurement was performed with D2O in the outside the double tube. The overall compound concentration was low and the peak ratio of water was high, and thus, the number of times of integration was increased for measurement to distinguish between the peaks of the compounds and the peak of the baseline.
ArSSrA (F) and ArSSrA (NO2) were subjected to the same test as in Test Example 6 to examine their cleavage reactions in the normal cell model and the cancer cell model. The results of ArSSrA (F) and ArSSrA (NO2) are shown in Table 6 and Table 7, respectively.

[2] = Reductive cleavage reaction of F- and NO2-substituted products, NMR (Test Examples 7 and 8); details: same conditions as in Test Example 5
[3] = Reductive cleavage reaction with GSH in mixed system, NMR (Test Example 4); details: ArSSrA (H)/GSH=4.4 mM/4.5 mM, 50 mM phosphate buffer
Method: As NMR spectrum measurement conditions, GSH of the formula (13) was added to ArSSrA (H) of the formula (7) in a 50 mM phosphate buffer to adjust a solution of ArSSrA (H)/GSH=4.4 mM/4.5 mM, and the measurement by NMR was carried out. A double tube (SHIGEMI Co., Ltd., Model SP-405) was used and a TMS-containing CDCl3 solution (LOCK solvent) was placed in the outside to adjust an NMR tube.
In the NMR measurement, the water elimination (presaturation method) measurement was performed with reference to Casi, G. et al., J. Controlled Release. 2012, 161, 121, 422 to 428, and the like.
(Initial concentration ArSSrA (H)/GSH=4.4 mM/4.5 mM)

[4] = Cleavage reaction under normal cell model condition, NMR (Test Example 5); details: ArS—SrA 225 μM, GSH 450 μM (normal cell model)
Method: ArS—SrA (H) of the formula (7) was administered to a cell model of a GSH concentration assuming a realistic intracellular drug concentration to examine the cleavage reaction of the linker compound.
At an ArS—SrA (H) concentration (225 μM), the GSH concentration of a normal cell was approximated to 450 μM, and the same measurement was performed. To prevent a peak of the aromatic region having a low concentration from being overlapped by the peak of CHCl3 contained in CDCl3, the measurement was performed with D2O in outside the double tube. The overall compound concentration was low and the peak ratio of water was high, and thus, the number of times of integration was increased for measurement to distinguish between the peaks of the compounds and the peak of the baseline.

[5] = Reductive cleavage reaction with LiBH4 in THF traced by UV spectrum (Test Example 2); details: 45 μM in THF, 11 equivalents LiBH4, absorption at 242 nm
Method: The control of the electron density of the S atom by the substituent was expected from the above NMR results, and thus, a reductive cleavage reaction of the thiophenol-type disulfide linker was actually examined. First, a reaction of a thiophenol derivative model compound (compound of formula (2)) with a reducing agent LiBH4 in an organic solvent THF was carried out as a model reaction (formula (12)) using a UV spectrum which can be easily examined, and a pseudo-first order reaction rate was examined.
As the THF, THF available from Wako Pure Chemical Industries, Ltd., product code 207-17765, super dehydrated, and stabilizer-free was used, and as the cell, a cell of 10 mm×10 mm was used. A reduction reaction of an oxidized form (disulfide) of the compound of the formula (2), which is an unsubstituted model compound, was carried out in the cell. The reaction was carried out using an excess amount (11 equivalents) of LiBH4 relative to the oxidized form of the compound of the formula (2) (45 μM in THF). LiBH4 was adjusted by diluting a commercially available THF 2M solution and used in the reaction.

[6] = ArS—SrA 225 μM, GSH 20 mM (cancer cell model), 100 min.
[7] = ArS—SrA 225 μM, GSH 20 mM (cancer cell model), 100 minutes
[8] = ArS—SrA 225 μM, GSH 20 mM (cancer cell model), 1 day

SMILES: O=C(O)c1c(F)cccc1SSc1cccc(F)c1C(=O)O [ArSSrA (F)]
- ArSH abundance ratio [1, 6]: 92%
- ArS—SG abundance ratio (1st ArS—SG column) [1, 6]: 0%
- ArS—SG abundance ratio (2nd ArS—SG column) [1, 6]: 0%
- ArS—SrA abundance ratio (remaining disulfide) [1, 6]: 8%
- GSH abundance ratio [1, 6]: 96%
- GS—SG abundance ratio [1, 6]: 3.8%
- linker disulfide cleaved (dissociated) [1, 7]: about 90%
- ArSH abundance ratio [1, 8]: 100%
- ArS—SG abundance ratio (1st ArS—SG column) [1, 8]: 0%
- ArS—SG abundance ratio (2nd ArS—SG column) [1, 8]: 0%
- ArS—SrA abundance ratio (remaining disulfide) [1, 8]: 0%
- GSH abundance ratio [1, 8]: 90%
- GS—SG abundance ratio [1, 8]: 9.5%
- linker disulfide cleaved (dissociated) [1, 8]: all
- ArSH abundance ratio ([2]; 100 min.): 38%
- ArS—SG abundance ratio (1st ArS—SG column) ([2]; 100 min.): 20%
- ArS—SG abundance ratio (2nd ArS—SG column) ([2]; 100 min.): 39%
- ArS—SrA abundance ratio (remaining disulfide) ([2]; 100 min.): 42%
- GSH abundance ratio ([2]; 100 min.): 42%
- GS—SG abundance ratio ([2]; 100 min.): 9%
- ArSH abundance ratio ([2]; 1 day): 36%
- ArS—SG abundance ratio (1st ArS—SG column) ([2]; 1 day): 21%
- ArS—SG abundance ratio (2nd ArS—SG column) ([2]; 1 day): 41%
- GSH abundance ratio ([2]; 1 day): 8%
- GS—SG abundance ratio ([2]; 1 day): 26%

SMILES: O=C(O)c1ccccc1SSc1ccccc1C(=O)O [ArSSrA (H)]
- ArSH abundance ratio ([3]; 25 min.): 13%
- ArS—SG abundance ratio (1st ArS—SG column) ([3]; 25 min.): 3.8%
- ArS—SG abundance ratio (2nd ArS—SG column) ([3]; 25 min.): 7.2%
- ArS—SrA abundance ratio (remaining disulfide) ([3]; 25 min.): 83%
- GSH abundance ratio ([3]; 25 min.): 74%
- GS—SG abundance ratio ([3]; 25 min.): 19%
- ArSH abundance ratio ([3]; 100 min.): 26%
- ArS—SG abundance ratio (1st ArS—SG column) ([3]; 100 min.): 11%
- ArS—SG abundance ratio (2nd ArS—SG column) ([3]; 100 min.): 20%
- ArS—SrA abundance ratio (remaining disulfide) ([3]; 100 min.): 62%
- GSH abundance ratio ([3]; 100 min.): 48%
- GS—SG abundance ratio ([3]; 100 min.): 32%
- ArSH abundance ratio ([3]; 1 day): 12%
- ArS—SG abundance ratio (1st ArS—SG column) ([3]; 1 day): 31%
- ArS—SG abundance ratio (2nd ArS—SG column) ([3]; 1 day): 57%
- ArS—SrA abundance ratio (remaining disulfide) ([3]; 1 day): 57%
- GSH abundance ratio ([3]; 1 day): 11%
- GS—SG abundance ratio ([3]; 1 day): 32%
- ArSH abundance ratio [1, 6]: 82%
- ArS—SG abundance ratio (1st ArS—SG column) [1, 6]: 0%
- ArS—SG abundance ratio (2nd ArS—SG column) [1, 6]: 0%
- ArS—SrA abundance ratio (remaining disulfide) [1, 6]: 19%
- GSH abundance ratio [1, 6]: 97%
- GS—SG abundance ratio [1, 6]: 3.4%
- linker disulfide cleaved (dissociated) [1, 7]: 82%
- ArSH abundance ratio [1, 8]: 100%
- ArS—SG abundance ratio (1st ArS—SG column) [1, 8]: 0%
- ArS—SG abundance ratio (2nd ArS—SG column) [1, 8]: 0%
- ArS—SrA abundance ratio (remaining disulfide) [1, 8]: 0%
- GSH abundance ratio [1, 8]: 91%
- GS—SG abundance ratio [1, 8]: 8.8%
- linker disulfide cleaved (dissociated) [1, 8]: 100%
- ArSH abundance ratio ([4]; 100 min.): 8.2%
- ArS—SG abundance ratio (1st ArS—SG column) ([4]; 100 min.): 2%
- ArS—SG abundance ratio (2nd ArS—SG column) ([4]; 100 min.): 1.8%
- ArS—SrA abundance ratio (remaining disulfide) ([4]; 100 min.): 89%
- GSH abundance ratio ([4]; 100 min.): 88%
- GS—SG abundance ratio ([4]; 100 min.): 10%
- ArSH abundance ratio ([4]; 1 day): 3.3%
- ArS—SG abundance ratio (1st ArS—SG column) ([4]; 1 day): 24%
- ArS—SG abundance ratio (2nd ArS—SG column) ([4]; 1 day): 21%
- ArS—SrA abundance ratio (remaining disulfide) ([4]; 1 day): 84%
- GSH abundance ratio (GSH remained) ([4]; 1 day): 18%
- GSH consumed ([4]; 1 day): 82%
- GS—SG abundance ratio ([4]; 1 day): 62%
- linker disulfide cleaved ([4]; 1 day): about 16%

SMILES: O=C(O)c1cc(SSc2ccc([N+](=O)[O-])c(C(=O)O)c2)ccc1[N+](=O)[O-] [ArSSrA (NO2)]
- ArS—SrA abundance ratio (remaining disulfide) ([1]; 100 min, 225 μM): 5%
- ArS—SrA abundance ratio (remaining disulfide) ([1]; 24 h, 225 μM): 0%
- ArSH abundance ratio [1, 6]: 95%
- ArS—SG abundance ratio (1st ArS—SG column) [1, 6]: 0%
- ArS—SG abundance ratio (2nd ArS—SG column) [1, 6]: 0%
- GSH abundance ratio [1, 6]: 95%
- GS—SG abundance ratio [1, 6]: 4%
- linker disulfide cleaved (dissociated) [1, 7]: about 90%
- ArSH abundance ratio [1, 8]: 100%
- ArS—SG abundance ratio (1st ArS—SG column) [1, 8]: 0%
- ArS—SG abundance ratio (2nd ArS—SG column) [1, 8]: 0%
- GSH abundance ratio [1, 8]: 90%
- GS—SG abundance ratio [1, 8]: 10%
- linker disulfide cleaved (dissociated) [1, 8]: all
- ArSH abundance ratio ([2]; 100 min.): 51%
- ArS—SG abundance ratio (1st ArS—SG column) ([2]; 100 min.): 20%
- ArS—SG abundance ratio (2nd ArS—SG column) ([2]; 100 min.): 39%
- ArS—SrA abundance ratio (remaining disulfide) ([2]; 100 min.): 29%
- GSH abundance ratio ([2]; 100 min.): 30%
- GS—SG abundance ratio ([2]; 100 min.): 9%
- ArSH abundance ratio ([2]; 1 day): 48%
- ArS—SG abundance ratio (1st ArS—SG column) ([2]; 1 day): 22%
- ArS—SG abundance ratio (2nd ArS—SG column) ([2]; 1 day): 45%
- GSH abundance ratio ([2]; 1 day): 4%
- GS—SG abundance ratio ([2]; 1 day): 26%

SMILES: c1ccc(SSc2ccccc2)cc1 [formula (2)]
- pseudo first order reaction rate constant k [5]: 1.97×10^−2
